Five molecules from PubChem BioAssay AID1259407 (Chemical Carcinogenesis Research Information System (CCRIS), 2018) can be followed below.

For this data set, the system named is CCRIS mutagenicity, Ames/micronucleus/aberration tests. The data set can be described thus: CCRIS mutagenicity studies. Particulars: Method: STANDARD PLATE.
Where [1] appears, read: Test System: AMES SALMONELLA TYPHIMURIUM, Strain/Indicator: TA98, Metabolic Activation: NONE.
Setting [2] is: Test System: AMES SALMONELLA TYPHIMURIUM, Strain/Indicator: TA98, Metabolic Activation: RAT LIVER S-9, AROCLOR 1254.
The mark [3] stands for this setting: Test System: AMES SALMONELLA TYPHIMURIUM, Strain/Indicator: TA100, Metabolic Activation: NONE.
Setting [4] is: Test System: AMES SALMONELLA TYPHIMURIUM, Strain/Indicator: TA100, Metabolic Activation: RAT LIVER S-9, AROCLOR 1254.
Setting [5] is: Test System: AMES SALMONELLA TYPHIMURIUM, Strain/Indicator: TA97, Metabolic Activation: NONE.
The mark [6] stands for this setting: Test System: AMES SALMONELLA TYPHIMURIUM, Strain/Indicator: TA102, Metabolic Activation: NONE.

The structures appear in SMILES notation. The source made the active and inactive calls. The rule behind the calls is not given here.

Take `Cc1cc(N)c(C)c2c1[nH]c1ccc(O)cc12`: the mutagenic call is “inactive; negative” under setting [1], “active; positive” under setting [2], “inactive; negative” under setting [3] and “inactive; negative” under setting [4].
Regarding `c1ccc2c(c1)-c1nc3ccccc3c3c1c-2nc1ccccc13`, the mutagenic call by setting is: under setting [1], “inactive; negative”; under setting [2], “inactive; negative”; (Test System: ESCHERICHIA COLI, Strain/Indicator: WP2 UVR A, Metabolic Activation: NONE) “inactive; negative”; (Test System: ESCHERICHIA COLI, Strain/Indicator: WP2 UVR A, Metabolic Activation: RAT LIVER S-9, AROCLOR 1254) “inactive; negative”.
For the molecule `CCC1C(C)=NN=C(c2ccc(OC)c(OC)c2)c2cc(OC)c(OC)cc21` (stereo unspecified), the mutagenic call under setting [5] is “inactive; negative”; the mutagenic call (Test System: AMES SALMONELLA TYPHIMURIUM, Strain/Indicator: TA97, Metabolic Activation: RAT LIVER S-9, AROCLOR 1254) was “inactive; negative”; the mutagenic call under setting [1] is “inactive; negative”; the mutagenic call under setting [2] is “inactive; negative”; the mutagenic call under setting [3] is “inactive; negative”; the mutagenic call under setting [4] is “inactive; negative”. The mutagenic call was “inactive; negative” under setting [6]; “inactive; negative” (Test System: AMES SALMONELLA TYPHIMURIUM, Strain/Indicator: TA102, Metabolic Activation: RAT LIVER S-9, AROCLOR 1254); “inactive; negative” (Test System: AMES SALMONELLA TYPHIMURIUM, Strain/Indicator: TA1537, Metabolic Activation: NONE); “inactive; negative” (Test System: AMES SALMONELLA TYPHIMURIUM, Strain/Indicator: TA1537, Metabolic Activation: RAT LIVER S-9, AROCLOR 1254).
Consider `OC(c1ccc(Cl)cc1)(c1ccc(Cl)cc1)C1CC1`, for which the mutagenic call under setting [5] was “inactive; negative”; the mutagenic call (Test System: AMES SALMONELLA TYPHIMURIUM, Strain/Indicator: TA97, Metabolic Activation: RAT, LIVER, S-9, AROCLOR 1254) was “inactive; negative”; the mutagenic call under setting [1] is “inactive; negative”; the mutagenic call (Test System: AMES SALMONELLA TYPHIMURIUM, Strain/Indicator: TA98, Metabolic Activation: RAT, LIVER, S-9, AROCLOR 1254) is “inactive; negative”; the mutagenic call under setting [3] is “inactive; negative”; the mutagenic call (Test System: AMES SALMONELLA TYPHIMURIUM, Strain/Indicator: TA100, Metabolic Activation: RAT, LIVER, S-9, AROCLOR 1254) was “inactive; negative”.
`CC(C)(S)[C@H](N)C(=O)O`: the mutagenic call reads like this: (Test System: AMES SALMONELLA TYPHIMURIUM, Strain/Indicator: TA92, Metabolic Activation: NONE) “active; positive”; (Test System: AMES SALMONELLA TYPHIMURIUM, Strain/Indicator: TA92, Metabolic Activation: RAT, KIDNEY, S-9) “active; positive”; (Test System: AMES SALMONELLA TYPHIMURIUM, Strain/Indicator: TA92, Metabolic Activation: RAT, LIVER, S-9) “active; positive”; under setting [3], “active; positive”; (Test System: AMES SALMONELLA TYPHIMURIUM, Strain/Indicator: TA100, Metabolic Activation: RAT, KIDNEY, S-9) “active; positive”; (Test System: AMES SALMONELLA TYPHIMURIUM, Strain/Indicator: TA100, Metabolic Activation: RAT, LIVER, S-9) “active; positive”. The mutagenic call under setting [6] is “active; positive”.
